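Compound exposure: 48 hours, 5 concentrations, 96-well plates. GI50: concentration for 50% inhibition of growth.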 Active and inactive are the calls of the source. Rule as the data show it: active = GI50 up to about 1.1 µM and inactive = higher.
What was measured:
Assay in all cases: NCI anticancer screen, dose series, 48 h
[1] = tested on: HCC 2998
[2] = tested on: M14
[3] = tested on: NCI-H460
[4] = tested on: BT-549
[5] = tested on: RXF 393
[6] = tested on: SNB-75
[7] = tested on: A498
[8] = tested on: OVCAR-5
[9] = tested on: UO-31
[10] = tested on: NCI-H522
[11] = tested on: TK-10
[12] = tested on: U-251
[13] = tested on: KM12
[14] = tested on: SW-620
[15] = tested on: 786-0
[16] = tested on: K562
[17] = tested on: Hs-578T
[18] = tested on: UACC-257
[19] = tested on: HT-29
[20] = tested on: SK-OV-3

SMILES | GI50 [1] | GI50 [2] | GI50 [3] | GI50 [4] | GI50 [5] | GI50 [6] | GI50 [7] | GI50 [8] | GI50 [9] | GI50 [10] | GI50 [11] | GI50 [12] | GI50 [13] | GI50 [14] | GI50 [15] | GI50 [16] | GI50 [17] | GI50 [18] | GI50 [19] | GI50 [20]
S=C1c2ccc(Cl)cc2-n2cnnc2C2CSCN12 (stereo not drawn) | > 100 µM (inactive) | > 100 µM (inactive) | > 100 µM (inactive) | > 100 µM (inactive) | > 100 µM (inactive) | > 100 µM (inactive) | > 100 µM (inactive) | > 100 µM (inactive) | > 100 µM (inactive) | > 100 µM (inactive) | > 100 µM (inactive) | > 100 µM (inactive) | > 100 µM (inactive) | > 100 µM (inactive) | > 100 µM (inactive) | 13.9 µM (inactive) | > 100 µM (inactive) | > 100 µM (inactive) | > 100 µM (inactive) | > 100 µM (inactive)
COC(=O)[C@@H]1C[C@@]23CCCN4CC[C@@]5(c6cccc(OC)c6N(C=O)[C@]15CC2)[C@@H]43 | > 100 µM (inactive) | > 100 µM (inactive) | > 100 µM (inactive) | > 100 µM (inactive) | > 100 µM (inactive) | 78.7 µM (inactive) | > 100 µM (inactive) | > 100 µM (inactive) | > 100 µM (inactive) | > 100 µM (inactive) | > 100 µM (inactive) | > 100 µM (inactive) | > 100 µM (inactive) | > 100 µM (inactive) | > 100 µM (inactive) | – | > 100 µM (inactive) | > 100 µM (inactive) | > 100 µM (inactive) | > 100 µM (inactive)
Cc1nc2ccc(F)cc2c2c1CCN2c1ccc(Cl)cc1 | 13.7 µM (inactive) | 8.85 µM (inactive) | 7.38 µM (inactive) | 19.5 µM (inactive) | 18 µM (inactive) | 39.6 µM (inactive) | 20.9 µM (inactive) | 33.9 µM (inactive) | 5.45 µM (inactive) | 6.78 µM (inactive) | 9.4 µM (inactive) | 9.1 µM (inactive) | – | 11.3 µM (inactive) | 7.66 µM (inactive) | 2.26 µM (inactive) | 27.6 µM (inactive) | 3.51 µM (inactive) | 3.61 µM (inactive) | 29 µM (inactive)
CN(CCNC(=O)c1cn(C)c2c1ccc1cc(Cl)c(Cl)cc12)CCNC(=O)c1cn(C)c2c1ccc1cc(Cl)c(Cl)cc12 | 1.69 µM (inactive) | 1.75 µM (inactive) | 1.9 µM (inactive) | 19.7 µM (inactive) | 1.42 µM (inactive) | 1.58 µM (inactive) | 3.82 µM (inactive) | 2.79 µM (inactive) | 1.72 µM (inactive) | 1.97 µM (inactive) | 3.71 µM (inactive) | 1.77 µM (inactive) | 1.75 µM (inactive) | 1.8 µM (inactive) | 1.65 µM (inactive) | 0.535 µM (active) | 2.17 µM (inactive) | 2.41 µM (inactive) | 1.75 µM (inactive) | 2.03 µM (inactive)
CC(=O)Oc1cc2c(c3ncccc13)OC(C)(C)C2 | 15.5 µM (inactive) | 12.8 µM (inactive) | 8.71 µM (inactive) | > 100 µM (inactive) | 12.4 µM (inactive) | 2.06 µM (inactive) | 16.9 µM (inactive) | 14.8 µM (inactive) | > 100 µM (inactive) | 1.17 µM (inactive) | 12.8 µM (inactive) | 12.4 µM (inactive) | 13.4 µM (inactive) | 13.3 µM (inactive) | 14.6 µM (inactive) | 6.19 µM (inactive) | 5.12 µM (inactive) | 15.5 µM (inactive) | 15.7 µM (inactive) | 27.2 µM (inactive)
O=c1c2cccnc2cc(-c2ccccc2)n1CCO | > 100 µM (inactive) | > 100 µM (inactive) | > 100 µM (inactive) | > 100 µM (inactive) | > 100 µM (inactive) | > 100 µM (inactive) | > 100 µM (inactive) | > 100 µM (inactive) | > 100 µM (inactive) | > 100 µM (inactive) | > 100 µM (inactive) | > 100 µM (inactive) | > 100 µM (inactive) | > 100 µM (inactive) | > 100 µM (inactive) | > 100 µM (inactive) | > 100 µM (inactive) | > 100 µM (inactive) | > 100 µM (inactive) | > 100 µM (inactive)
COC(=O)c1c(C)cccc1/C=C1/Cc2c(C)cccc2C1=O | > 100 µM (inactive) | – | 67.9 µM (inactive) | 28.2 µM (inactive) | 25.4 µM (inactive) | > 100 µM (inactive) | 88.9 µM (inactive) | > 100 µM (inactive) | > 100 µM (inactive) | > 100 µM (inactive) | > 100 µM (inactive) | 90.6 µM (inactive) | > 100 µM (inactive) | > 100 µM (inactive) | 88.7 µM (inactive) | – | 32.6 µM (inactive) | 3.1 µM (inactive) | > 100 µM (inactive) | > 100 µM (inactive)
CN(C)CCCN1C(=S)N(CCCN(C)C)c2c3ccccc3nc3c([N+](=O)[O-])ccc1c23 | 4.21 µM (inactive) | 6.27 µM (inactive) | 3.46 µM (inactive) | 14.7 µM (inactive) | 5.08 µM (inactive) | 7.46 µM (inactive) | 7.71 µM (inactive) | 13.8 µM (inactive) | 5.66 µM (inactive) | 1.77 µM (inactive) | 10 µM (inactive) | 6.87 µM (inactive) | 3.3 µM (inactive) | 3.05 µM (inactive) | 4.82 µM (inactive) | 4.3 µM (inactive) | 6.27 µM (inactive) | 6.01 µM (inactive) | 2.94 µM (inactive) | 15.5 µM (inactive)
O=C1c2cc3c(cc2CC1Br)CCC3 (stereo not drawn) | 5.64 µM (inactive) | 1.45 µM (inactive) | 12.1 µM (inactive) | 1.96 µM (inactive) | 1.83 µM (inactive) | 2.93 µM (inactive) | 18.1 µM (inactive) | 5.64 µM (inactive) | 10.6 µM (inactive) | 1.45 µM (inactive) | 2.75 µM (inactive) | 3.26 µM (inactive) | 7 µM (inactive) | 1.42 µM (inactive) | 1.8 µM (inactive) | 1.39 µM (inactive) | 4.06 µM (inactive) | 2.23 µM (inactive) | 2.36 µM (inactive) | 7.73 µM (inactive)
CCC(C)C1NC(=O)C2CCCN2C(=O)C(CC2CO2)OC(=O)CCNC(=O)C(C)N(C)C(=O)C(C(C)C)N(C)C1=O (stereo not drawn) | 21.8 µM (inactive) | 0.0182 µM (active) | – | < 0.0414 µM (active) | 0.0713 µM (active) | 0.331 µM (active) | > 100 µM (inactive) | 1.43 µM (inactive) | 7.31 µM (inactive) | 3.3 µM (inactive) | > 14 µM (inactive) | 2.75 µM (inactive) | 1.06 µM (active) | 0.0478 µM (active) | 0.0601 µM (active) | 0.0946 µM (active) | > 100 µM (inactive) | < 0.01 µM (active) | 1.73 µM (inactive) | > 100 µM (inactive)
O=C1/C(=C/c2ccc(Cl)cc2)CCC1CN1CCOCC1 (stereo not drawn) | 9.75 µM (inactive) | 5.48 µM (inactive) | 14.9 µM (inactive) | 11.3 µM (inactive) | 3.76 µM (inactive) | 20.5 µM (inactive) | 19.6 µM (inactive) | 23.2 µM (inactive) | 9.08 µM (inactive) | 1.81 µM (inactive) | 7.36 µM (inactive) | 15.9 µM (inactive) | 3.33 µM (inactive) | 2.47 µM (inactive) | 2.48 µM (inactive) | 1.86 µM (inactive) | 4.31 µM (inactive) | 8.73 µM (inactive) | 7.03 µM (inactive) | 18 µM (inactive)
CC(=O)OCC1=C(C(=O)O)N2C(=O)C(NC(=O)CSc3ccncc3)C2SC1 (stereo not drawn) | > 100 µM (inactive) | > 100 µM (inactive) | > 100 µM (inactive) | > 100 µM (inactive) | > 100 µM (inactive) | > 100 µM (inactive) | > 100 µM (inactive) | > 100 µM (inactive) | > 100 µM (inactive) | > 100 µM (inactive) | – | > 100 µM (inactive) | > 100 µM (inactive) | > 100 µM (inactive) | > 100 µM (inactive) | > 100 µM (inactive) | > 100 µM (inactive) | > 100 µM (inactive) | > 100 µM (inactive) | > 100 µM (inactive)
CC(C)=CCC/C(=C/CC/C(=C\CCc1ccoc1)C(=O)O)C(=O)O | > 100 µM (inactive) | > 100 µM (inactive) | – | > 100 µM (inactive) | > 100 µM (inactive) | > 100 µM (inactive) | > 100 µM (inactive) | > 100 µM (inactive) | > 100 µM (inactive) | > 100 µM (inactive) | > 100 µM (inactive) | > 100 µM (inactive) | > 100 µM (inactive) | > 100 µM (inactive) | > 100 µM (inactive) | > 100 µM (inactive) | > 100 µM (inactive) | > 100 µM (inactive) | > 100 µM (inactive) | > 100 µM (inactive)
CNC=O | > 3980 µM (inactive) | > 10000 µM (inactive) | > 10000 µM (inactive) | > 10000 µM (inactive) | > 10000 µM (inactive) | 8150 µM (inactive) | > 9710 µM (inactive) | > 10000 µM (inactive) | > 10000 µM (inactive) | > 10000 µM (inactive) | > 10000 µM (inactive) | 9930 µM (inactive) | > 10000 µM (inactive) | > 10000 µM (inactive) | > 10000 µM (inactive) | > 10000 µM (inactive) | > 10000 µM (inactive) | > 10000 µM (inactive) | > 10000 µM (inactive) | > 3980 µM (inactive)

— ChEMBL document CHEMBL1201862, “PubChem BioAssay data set” (2004)
